Measurements taken from ChEMBL document CHEMBL4043168, “The design and SAR of a novel series of 2-aminopyridine based LRRK2 inhibitors” (Bioorg Med Chem Lett, 2017).

Key:
[1] = Intrinsic clearance in rat liver microsomes; format: ADME, microsome; conditions: read-out: CLH (converted)
[2] = target: Leucine-rich repeat serine/threonine-protein kinase 2 (Homo sapiens, UniProt Q5S007); assay: Inhibition wild type LRRK2 (unknown origin) Ser935 phosphorylation in HEK293 cells; format: cell-based
[3] = target: Cyclin-dependent kinase 5 (Homo sapiens) (UniProt Q00535); assay: Inhibition of CDK5 labeling at conserved Lys1 (NRETHEIVALKR) in human PBMC at 1 uM
Chain of Cyclin-dependent kinase 5 (Homo sapiens) (Q00535 whole entry, looked up): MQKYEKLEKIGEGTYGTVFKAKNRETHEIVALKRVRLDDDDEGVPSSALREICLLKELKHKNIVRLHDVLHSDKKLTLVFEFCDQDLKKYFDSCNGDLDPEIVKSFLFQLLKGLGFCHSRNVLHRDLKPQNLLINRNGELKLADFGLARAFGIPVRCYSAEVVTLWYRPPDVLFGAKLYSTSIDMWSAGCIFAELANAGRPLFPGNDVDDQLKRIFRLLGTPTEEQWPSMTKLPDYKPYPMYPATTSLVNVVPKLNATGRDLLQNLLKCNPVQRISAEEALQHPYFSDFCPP

[4] = target: Dual specificity mitogen-activated protein kinase kinase 7 (Homo sapiens) (UniProt O14733); assay: Inhibition of MAP2K7 conserved Lys2 (DVKPSNILLDER) in human PBMC at 1 uM
[5] = target: Phosphatidylinositol 5-phosphate 4-kinase type-2 gamma (Homo sapiens) (UniProt Q8TBX8); assay: Inhibition of PIP4K2C ATP binding site (TLVIKEVSSEDIADMHSNLSNYHQYIVK) in human PBMC at 1 uM
Chain of Phosphatidylinositol 5-phosphate 4-kinase type-2 gamma (Homo sapiens) (Q8TBX8 whole entry): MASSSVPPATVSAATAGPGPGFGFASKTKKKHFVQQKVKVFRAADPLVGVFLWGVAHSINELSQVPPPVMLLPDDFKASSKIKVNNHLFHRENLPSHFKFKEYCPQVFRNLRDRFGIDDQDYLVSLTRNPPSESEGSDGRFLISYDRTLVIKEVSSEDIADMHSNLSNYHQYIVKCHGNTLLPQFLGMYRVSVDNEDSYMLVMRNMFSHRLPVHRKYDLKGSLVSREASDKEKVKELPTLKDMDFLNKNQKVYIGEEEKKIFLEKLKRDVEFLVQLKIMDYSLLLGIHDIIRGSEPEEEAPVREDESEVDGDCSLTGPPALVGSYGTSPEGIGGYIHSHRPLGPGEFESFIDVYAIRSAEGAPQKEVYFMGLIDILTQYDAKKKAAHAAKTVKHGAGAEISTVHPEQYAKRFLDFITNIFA

[6] = target: Serine/threonine-protein kinase SIK3 (Homo sapiens) (UniProt Q9Y2K2); assay: Inhibition of QSK conserved Lys1 (VAIKIIDKTQLDEENLKK) in human PBMC at 1 uM
Chain of Serine/threonine-protein kinase SIK3 (Homo sapiens) (Q9Y2K2 whole entry, looked up): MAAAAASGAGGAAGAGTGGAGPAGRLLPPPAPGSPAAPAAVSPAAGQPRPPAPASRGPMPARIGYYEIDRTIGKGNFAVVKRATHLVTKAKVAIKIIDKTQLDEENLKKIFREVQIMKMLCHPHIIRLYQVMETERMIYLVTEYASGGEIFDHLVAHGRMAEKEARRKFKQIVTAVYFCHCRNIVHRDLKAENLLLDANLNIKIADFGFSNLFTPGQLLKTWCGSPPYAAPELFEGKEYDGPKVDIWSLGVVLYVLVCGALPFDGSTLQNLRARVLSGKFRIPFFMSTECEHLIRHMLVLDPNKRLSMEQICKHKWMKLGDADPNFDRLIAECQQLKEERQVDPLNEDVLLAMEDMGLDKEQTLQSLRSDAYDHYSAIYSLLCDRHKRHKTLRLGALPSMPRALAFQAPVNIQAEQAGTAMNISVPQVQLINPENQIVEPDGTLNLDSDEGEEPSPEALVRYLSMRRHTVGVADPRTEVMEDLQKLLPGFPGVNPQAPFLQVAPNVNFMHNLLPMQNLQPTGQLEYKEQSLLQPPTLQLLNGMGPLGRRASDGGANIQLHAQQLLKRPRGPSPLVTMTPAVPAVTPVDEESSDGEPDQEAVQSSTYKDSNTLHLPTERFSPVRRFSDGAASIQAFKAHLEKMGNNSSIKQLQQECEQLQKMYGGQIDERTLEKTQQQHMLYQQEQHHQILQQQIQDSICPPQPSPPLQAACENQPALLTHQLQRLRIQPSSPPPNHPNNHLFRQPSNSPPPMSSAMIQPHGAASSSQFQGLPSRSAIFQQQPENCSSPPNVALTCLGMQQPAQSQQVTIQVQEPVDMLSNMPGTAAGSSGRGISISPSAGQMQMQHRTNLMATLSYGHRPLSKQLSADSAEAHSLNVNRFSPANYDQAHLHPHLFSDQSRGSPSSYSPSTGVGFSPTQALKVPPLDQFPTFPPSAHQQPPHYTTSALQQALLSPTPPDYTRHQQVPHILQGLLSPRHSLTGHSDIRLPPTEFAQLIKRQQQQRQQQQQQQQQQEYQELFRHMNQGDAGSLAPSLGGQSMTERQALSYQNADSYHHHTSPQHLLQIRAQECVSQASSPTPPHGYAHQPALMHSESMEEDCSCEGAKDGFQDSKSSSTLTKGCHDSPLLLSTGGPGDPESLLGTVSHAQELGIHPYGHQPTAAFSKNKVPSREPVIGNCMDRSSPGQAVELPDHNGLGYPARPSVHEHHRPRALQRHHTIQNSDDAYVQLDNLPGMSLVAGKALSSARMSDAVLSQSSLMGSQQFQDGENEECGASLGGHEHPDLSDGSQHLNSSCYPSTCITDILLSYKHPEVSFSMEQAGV

[7] = target: Ribosomal protein S6 kinase alpha-1 (Homo sapiens) (UniProt Q15418); assay: Inhibition of RSK1 conserved Lys2 (DLKPENILLDEEGHIK) in human PBMC at 1 uM; conditions: pooled result: one value given for 4 cell lines, strains, targets or settings
[8] = target: Serine/threonine-protein kinase WNK1 (Homo sapiens) (UniProt Q9H4A3); assay: Inhibition of Wnk1 activation Loop (IGDLGLATLKR) in human PBMC at 1 uM
Chain of Serine/threonine-protein kinase WNK1 (Homo sapiens) (Q9H4A3 whole entry, looked up): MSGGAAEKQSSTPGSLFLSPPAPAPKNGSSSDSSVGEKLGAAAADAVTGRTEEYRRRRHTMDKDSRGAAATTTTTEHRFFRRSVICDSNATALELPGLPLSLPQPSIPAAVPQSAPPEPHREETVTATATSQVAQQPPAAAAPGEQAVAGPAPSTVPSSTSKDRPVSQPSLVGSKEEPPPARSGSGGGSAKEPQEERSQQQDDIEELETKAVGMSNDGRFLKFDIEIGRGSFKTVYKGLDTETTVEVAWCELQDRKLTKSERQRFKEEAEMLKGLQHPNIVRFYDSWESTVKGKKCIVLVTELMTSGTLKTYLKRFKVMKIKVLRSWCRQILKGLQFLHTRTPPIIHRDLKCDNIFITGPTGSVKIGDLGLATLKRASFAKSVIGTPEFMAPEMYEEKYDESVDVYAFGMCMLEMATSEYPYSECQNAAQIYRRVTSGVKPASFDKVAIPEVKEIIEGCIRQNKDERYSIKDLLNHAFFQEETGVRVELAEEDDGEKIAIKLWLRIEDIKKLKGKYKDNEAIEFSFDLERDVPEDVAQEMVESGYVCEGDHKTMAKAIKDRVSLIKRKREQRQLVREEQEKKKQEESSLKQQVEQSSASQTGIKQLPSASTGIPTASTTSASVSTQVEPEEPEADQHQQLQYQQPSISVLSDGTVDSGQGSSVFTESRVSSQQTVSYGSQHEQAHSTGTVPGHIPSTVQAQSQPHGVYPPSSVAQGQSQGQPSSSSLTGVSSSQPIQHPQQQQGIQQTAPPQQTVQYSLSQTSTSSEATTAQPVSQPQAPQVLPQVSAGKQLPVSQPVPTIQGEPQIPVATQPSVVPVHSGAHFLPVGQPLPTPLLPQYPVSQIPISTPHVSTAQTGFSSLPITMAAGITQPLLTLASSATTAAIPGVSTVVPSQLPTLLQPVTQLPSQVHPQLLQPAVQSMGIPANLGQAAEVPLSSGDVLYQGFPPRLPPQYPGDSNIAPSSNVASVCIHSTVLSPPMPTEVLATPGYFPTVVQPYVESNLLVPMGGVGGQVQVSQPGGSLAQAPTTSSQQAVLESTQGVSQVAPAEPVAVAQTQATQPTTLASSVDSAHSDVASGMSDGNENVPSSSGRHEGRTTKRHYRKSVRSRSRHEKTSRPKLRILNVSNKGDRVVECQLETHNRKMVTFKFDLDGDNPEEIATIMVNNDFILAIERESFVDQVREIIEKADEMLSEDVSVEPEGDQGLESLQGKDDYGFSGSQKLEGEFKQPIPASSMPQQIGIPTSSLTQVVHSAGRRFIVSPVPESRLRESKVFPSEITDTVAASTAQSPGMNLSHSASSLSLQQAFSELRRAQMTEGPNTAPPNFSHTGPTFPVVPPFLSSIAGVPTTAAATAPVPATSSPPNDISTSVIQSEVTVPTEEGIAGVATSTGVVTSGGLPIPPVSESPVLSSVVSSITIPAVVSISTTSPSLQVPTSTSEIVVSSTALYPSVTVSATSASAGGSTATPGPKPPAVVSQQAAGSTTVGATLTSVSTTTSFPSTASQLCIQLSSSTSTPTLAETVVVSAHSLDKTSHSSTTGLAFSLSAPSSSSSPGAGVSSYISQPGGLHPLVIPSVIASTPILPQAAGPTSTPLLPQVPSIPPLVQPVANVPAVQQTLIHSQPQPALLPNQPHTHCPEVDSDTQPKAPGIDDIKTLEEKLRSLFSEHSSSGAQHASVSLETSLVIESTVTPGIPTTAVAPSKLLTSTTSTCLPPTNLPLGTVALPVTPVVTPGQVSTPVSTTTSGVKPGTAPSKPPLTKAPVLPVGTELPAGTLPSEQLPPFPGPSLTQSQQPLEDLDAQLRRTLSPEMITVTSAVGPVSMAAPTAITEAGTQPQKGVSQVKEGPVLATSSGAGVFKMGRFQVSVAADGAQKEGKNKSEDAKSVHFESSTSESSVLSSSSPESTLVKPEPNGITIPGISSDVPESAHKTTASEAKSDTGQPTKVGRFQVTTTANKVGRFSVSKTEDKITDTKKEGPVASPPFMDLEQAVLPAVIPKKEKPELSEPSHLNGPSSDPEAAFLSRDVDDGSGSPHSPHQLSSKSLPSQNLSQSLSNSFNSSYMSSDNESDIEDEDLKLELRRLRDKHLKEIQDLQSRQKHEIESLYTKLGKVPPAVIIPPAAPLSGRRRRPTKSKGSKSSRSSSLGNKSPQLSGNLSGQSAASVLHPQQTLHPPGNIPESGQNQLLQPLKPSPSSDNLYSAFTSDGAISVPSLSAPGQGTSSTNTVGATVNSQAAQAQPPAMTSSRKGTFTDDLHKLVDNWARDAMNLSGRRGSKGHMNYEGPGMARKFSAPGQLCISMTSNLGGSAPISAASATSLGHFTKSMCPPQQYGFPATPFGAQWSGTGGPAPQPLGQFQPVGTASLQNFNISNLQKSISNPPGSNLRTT

[9] = target: Calcium/calmodulin-dependent protein kinase type II subunit gamma (Homo sapiens) (UniProt Q13555); assay: Inhibition of CaMK2g labeling at conserved Lys1 (TSTQEYAAKIINTK) in human PBMC at 0.1 uM
[10] = target: Serine/threonine-protein kinase Chk2 (Homo sapiens) (UniProt O96017); assay: Inhibition of CHK2 labeling at conserved Lys1 (VAIKIISK) in human PBMC at 0.1 uM
[11] = target: Tyrosine-protein kinase CSK (Homo sapiens) (UniProt P41240); assay: Inhibition of CSK labeling at conserved Lys2 (VSDFGLTKEASSTQDTGKLPVK) in human PBMC at 0.1 uM
[12] = target: Mitogen-activated protein kinase 3 (Homo sapiens) (UniProt P27361); assay: Inhibition of Erk1 ATP binding site (DLKPSNLLINTTCDLK) in human PBMC at 0.1 uM
[13] = target: Mitogen-activated protein kinase kinase kinase 1 (Homo sapiens) (UniProt Q13233); assay: Inhibition of MAP3K1 conserved Lys2 (DVKGANLLIDSTGQR) in human PBMC at 0.1 uM
[14] = target: MAP/microtubule affinity-regulating kinase 4 (Homo sapiens) (UniProt Q96L34); assay: Inhibition of MARK4 conserved Lys1 (EVAIKIIDK) in human PBMC at 0.1 uM
[15] = target: T1, Serine/threonine-protein kinase 3 (Homo sapiens) (UniProt Q13188); assay: Inhibition of MST2 conserved Lys1 (ESGQVVAIKQVPVESDLQEIIK) in human PBMC at 0.1 uM
T1 sequence (whole entry): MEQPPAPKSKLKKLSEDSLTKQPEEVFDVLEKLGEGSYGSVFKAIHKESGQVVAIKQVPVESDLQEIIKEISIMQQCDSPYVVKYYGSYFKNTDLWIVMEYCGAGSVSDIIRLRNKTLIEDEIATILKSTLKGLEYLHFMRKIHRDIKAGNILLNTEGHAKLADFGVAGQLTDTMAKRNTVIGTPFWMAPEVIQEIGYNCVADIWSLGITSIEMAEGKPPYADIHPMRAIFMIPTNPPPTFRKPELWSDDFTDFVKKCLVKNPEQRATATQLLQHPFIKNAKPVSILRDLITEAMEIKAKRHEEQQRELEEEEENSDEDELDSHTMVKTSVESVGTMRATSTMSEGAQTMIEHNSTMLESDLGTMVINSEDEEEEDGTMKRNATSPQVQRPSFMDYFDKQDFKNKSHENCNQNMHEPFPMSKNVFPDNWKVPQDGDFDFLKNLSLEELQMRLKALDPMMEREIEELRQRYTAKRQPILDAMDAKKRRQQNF

[16] = target: Phosphatidylinositol 5-phosphate 4-kinase type-2 gamma (Homo sapiens) (UniProt Q8TBX8); assay: Inhibition of PIP4K2C ATP binding site (TLVIKEVSSEDIADMHSNLSNYHQYIVK) in human PBMC at 0.1 uM
[17] = target: Serine/threonine-protein kinase PLK1 (Homo sapiens) (UniProt P53350); assay: Inhibition of PLK1 conserved Lys1 (CFEISDADTKEVFAGKIVPK) in human PBMC at 0.1 uM
Chain of Serine/threonine-protein kinase PLK1 (Homo sapiens) (P53350 whole entry): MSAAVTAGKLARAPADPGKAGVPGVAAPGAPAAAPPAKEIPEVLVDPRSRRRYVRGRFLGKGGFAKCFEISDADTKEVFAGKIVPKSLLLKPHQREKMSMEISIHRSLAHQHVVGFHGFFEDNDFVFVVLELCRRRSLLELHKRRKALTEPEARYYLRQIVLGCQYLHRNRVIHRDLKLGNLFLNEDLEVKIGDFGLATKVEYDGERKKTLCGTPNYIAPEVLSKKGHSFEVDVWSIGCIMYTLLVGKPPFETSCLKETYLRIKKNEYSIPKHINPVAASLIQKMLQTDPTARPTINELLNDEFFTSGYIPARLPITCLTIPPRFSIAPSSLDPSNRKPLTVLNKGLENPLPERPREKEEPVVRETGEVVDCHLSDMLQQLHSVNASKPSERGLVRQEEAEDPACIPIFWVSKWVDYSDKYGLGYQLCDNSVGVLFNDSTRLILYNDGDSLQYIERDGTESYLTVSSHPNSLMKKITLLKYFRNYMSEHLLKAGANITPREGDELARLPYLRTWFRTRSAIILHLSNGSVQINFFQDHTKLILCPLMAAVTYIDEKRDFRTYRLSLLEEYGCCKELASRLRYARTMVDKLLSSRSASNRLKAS

## CC(C)n1cc(-c2cc(-c3ccc(CN4CCOCC4)cc3)cnc2N)nn1
[1]
  CLint scaled: 157 mL/min/kg
[2]
  IC50: 2.1 µM
[3]
  inhibition: 1.9%
[4]
  inhibition: 18.6%
[5]
  inhibition: 6.4%
[6]
  inhibition: 4%
[7]
  inhibition: 10.2%
[8]
  inhibition: 21.9%
[9]
  inhibition: -4.5%
[10]
  inhibition: 9.7%
[11]
  inhibition: -9.6%
[12]
  inhibition: -6.4%
[13]
  inhibition: 29.6%
[14]
  inhibition: -6.7%
[15]
  inhibition: 7.7%
[16]
  inhibition: -8.1%
[17]
  inhibition: 24.7%
